Measurements reported in patent publication US20250243196A1, “CITRON KINASE INHIBITORS” (The Cleveland Clinic Foundation, priority 2021, published 2025).
pIC50: −log10 of the molar value.

What was measured:
Assay type in all cases: biochemical
IKKβ = IKKβ (Homo sapiens (Human), UniProt O14920); experiment: KinaseProfiler radiometric assay (14-485KP); conditions: mean of at least two independent experiments
Excerpt: In another aspect, disclosed is a method of inhibiting citron kinase in a sample, comprising contacting the sample with a compound described herein (e.g., a compound of formula (I) or a pharmaceutically acceptable salt thereof), or a pharmaceutical composition described herein (e.g., a pharmaceutical composition comprising a compound of formula (I) or a pharmaceutically acceptable salt thereof), in an amount effective to inhibit citron kinase. In some embodiments, the step of contacting the sample with the compound comprises administering the compound to a subject (e.g., a subject) suffering from cancer. Methods of determining kinase inhibition are well known in the art. For example, kinase activity of an enzyme and the inhibitory capacity of a test compound can be determined by measuring enzyme specific phosphorylation of a substrate. Commercial assays and kits can be employed. For example, kinase inhibition can be determined using a radiometric binding assay, such as using KinaseProfiler™ technology (Eurofins Discovery). This assay method directly detects product formation without the use of modified substrates or coupling enzymes. Test compounds are incubated with kinase, substrate, required cofactors and radioisotope labeled ATP. Following incubation, unreacted radioactive ATP is removed by washing and incorporation of the radiolabeled phosphate into the kinase substrate is assayed to detect phosphoryltransferase activity, which is directly proportional to the amount of phosphorylated substrate. Inhibition of the kinase by a kinase inhibitor prevents phosphorylation of the substrate and thereby limits the incorporation of radiolabeled phosphate. Such an assay is compatible with a microwell assay format, allowing simultaneous determination of IC50 of multiple compounds.
The effect of various compounds on the inhibition of other kinases has also been determined. Table 2 reports measured IC50 values; value units are nanomolar inhibition.

CDK13/cyclinK(h) = CDK13/cyclinK(h) (Homo sapiens (Human), UniProt Q14004); experiment: KinaseProfiler panel; design: dose or concentration left out as unconfirmed; conditions: activity remaining
CDK7/cyclinH/MAT1(h) = CDK7/cyclinH/MAT1(h) (Homo sapiens (Human), UniProt P50613); experiment: KinaseProfiler panel; design: dose or concentration left out as unconfirmed; conditions: activity remaining
CHK2(h) = CHK2(h) (Homo sapiens (Human), UniProt O96017); experiment: KinaseProfiler panel; design: dose or concentration left out as unconfirmed; conditions: activity remaining
cKit(h) = cKit(h) (Homo sapiens (Human), UniProt P10721); experiment: KinaseProfiler panel; design: dose or concentration left out as unconfirmed; conditions: activity remaining
EphA5(h) = EphA5(h) (Homo sapiens (Human), UniProt P54756); experiment: KinaseProfiler panel; design: dose or concentration left out as unconfirmed; conditions: activity remaining
IGF-1R(h), activated = IGF-1R(h), activated (Homo sapiens (Human), UniProt P08069); experiment: KinaseProfiler panel; design: dose or concentration left out as unconfirmed; conditions: activity remaining
IR(h) = IR(h) (Homo sapiens (Human), UniProt P06213); experiment: KinaseProfiler panel; design: dose or concentration left out as unconfirmed; conditions: activity remaining
LIMK1(h) = LIMK1(h) (Homo sapiens (Human), UniProt P53667); experiment: KinaseProfiler panel; design: dose or concentration left out as unconfirmed; conditions: activity remaining
MAPK1(h) = MAPK1(h) (Homo sapiens (Human), UniProt P27361); experiment: KinaseProfiler panel; design: dose or concentration left out as unconfirmed; conditions: activity remaining
MAPKAP-K2(h) = MAPKAP-K2(h) (Homo sapiens (Human), UniProt P49137); experiment: KinaseProfiler panel; design: dose or concentration left out as unconfirmed; conditions: activity remaining
MEKK2(h) = MEKK2(h) (Homo sapiens (Human), UniProt Q9Y2U5); experiment: KinaseProfiler panel; conditions: activity remaining
MLK3(h) = MLK3(h) (Homo sapiens (Human), UniProt Q16584); experiment: KinaseProfiler panel; design: dose or concentration left out as unconfirmed; conditions: activity remaining
MRCKβ(h) = MRCKβ(h) (Homo sapiens (Human), UniProt Q9Y5S2); experiment: KinaseProfiler panel; design: dose or concentration left out as unconfirmed; conditions: activity remaining
MST3(h) = MST3(h) (Homo sapiens (Human), UniProt Q9Y6E0); experiment: KinaseProfiler panel; design: dose or concentration left out as unconfirmed; conditions: activity remaining
OSR1(h) = OSR1(h) (Homo sapiens (Human), UniProt O95747); experiment: KinaseProfiler panel; design: dose or concentration left out as unconfirmed; conditions: activity remaining
PAK4(h) = PAK4(h) (Homo sapiens (Human), UniProt O96013); experiment: KinaseProfiler panel; design: dose or concentration left out as unconfirmed; conditions: activity remaining
PAK5(h) = PAK5(h) (Homo sapiens (Human), UniProt Q9P286); experiment: KinaseProfiler panel; design: dose or concentration left out as unconfirmed; conditions: activity remaining
PKBα(h) = PKBα(h) (Homo sapiens (Human), UniProt P31749); experiment: KinaseProfiler panel; design: dose or concentration left out as unconfirmed; conditions: activity remaining
RIPK1(h) = RIPK1(h) (Homo sapiens (Human), UniProt Q13546); experiment: KinaseProfiler panel; design: dose or concentration left out as unconfirmed; conditions: activity remaining
Ron(h) = Ron(h) (Homo sapiens (Human), UniProt Q04912); experiment: KinaseProfiler panel; design: dose or concentration left out as unconfirmed; conditions: activity remaining
Rsk2(h) = Rsk2(h) (Homo sapiens (Human), UniProt P51812); experiment: KinaseProfiler panel; design: dose or concentration left out as unconfirmed; conditions: activity remaining
Rsk4(h) = Rsk4(h) (Homo sapiens (Human), UniProt Q9UK32); experiment: KinaseProfiler panel; conditions: activity remaining
STK25(h) = STK25(h) (Homo sapiens (Human), UniProt O00506); experiment: KinaseProfiler panel; design: dose or concentration left out as unconfirmed; conditions: activity remaining
TBK1(h) = TBK1(h) (Homo sapiens (Human), UniProt Q9UHD2); experiment: KinaseProfiler panel; conditions: activity remaining
TSSK4(h) = TSSK4(h) (Homo sapiens (Human), UniProt Q6SA08); experiment: KinaseProfiler panel; design: dose or concentration left out as unconfirmed; conditions: activity remaining

STK25(h), sequence (O00506 whole entry): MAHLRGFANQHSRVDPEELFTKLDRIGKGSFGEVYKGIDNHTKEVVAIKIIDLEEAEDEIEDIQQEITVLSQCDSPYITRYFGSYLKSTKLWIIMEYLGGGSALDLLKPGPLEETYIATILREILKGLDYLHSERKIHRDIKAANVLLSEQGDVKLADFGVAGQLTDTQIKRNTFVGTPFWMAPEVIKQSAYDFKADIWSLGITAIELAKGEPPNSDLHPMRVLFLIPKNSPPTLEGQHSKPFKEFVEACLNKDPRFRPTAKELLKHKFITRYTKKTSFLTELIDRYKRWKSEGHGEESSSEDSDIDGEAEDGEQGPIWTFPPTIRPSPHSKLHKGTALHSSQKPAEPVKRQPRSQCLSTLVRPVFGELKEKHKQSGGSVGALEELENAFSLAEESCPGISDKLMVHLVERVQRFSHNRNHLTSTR
Ron(h), sequence (Q04912 25-1400): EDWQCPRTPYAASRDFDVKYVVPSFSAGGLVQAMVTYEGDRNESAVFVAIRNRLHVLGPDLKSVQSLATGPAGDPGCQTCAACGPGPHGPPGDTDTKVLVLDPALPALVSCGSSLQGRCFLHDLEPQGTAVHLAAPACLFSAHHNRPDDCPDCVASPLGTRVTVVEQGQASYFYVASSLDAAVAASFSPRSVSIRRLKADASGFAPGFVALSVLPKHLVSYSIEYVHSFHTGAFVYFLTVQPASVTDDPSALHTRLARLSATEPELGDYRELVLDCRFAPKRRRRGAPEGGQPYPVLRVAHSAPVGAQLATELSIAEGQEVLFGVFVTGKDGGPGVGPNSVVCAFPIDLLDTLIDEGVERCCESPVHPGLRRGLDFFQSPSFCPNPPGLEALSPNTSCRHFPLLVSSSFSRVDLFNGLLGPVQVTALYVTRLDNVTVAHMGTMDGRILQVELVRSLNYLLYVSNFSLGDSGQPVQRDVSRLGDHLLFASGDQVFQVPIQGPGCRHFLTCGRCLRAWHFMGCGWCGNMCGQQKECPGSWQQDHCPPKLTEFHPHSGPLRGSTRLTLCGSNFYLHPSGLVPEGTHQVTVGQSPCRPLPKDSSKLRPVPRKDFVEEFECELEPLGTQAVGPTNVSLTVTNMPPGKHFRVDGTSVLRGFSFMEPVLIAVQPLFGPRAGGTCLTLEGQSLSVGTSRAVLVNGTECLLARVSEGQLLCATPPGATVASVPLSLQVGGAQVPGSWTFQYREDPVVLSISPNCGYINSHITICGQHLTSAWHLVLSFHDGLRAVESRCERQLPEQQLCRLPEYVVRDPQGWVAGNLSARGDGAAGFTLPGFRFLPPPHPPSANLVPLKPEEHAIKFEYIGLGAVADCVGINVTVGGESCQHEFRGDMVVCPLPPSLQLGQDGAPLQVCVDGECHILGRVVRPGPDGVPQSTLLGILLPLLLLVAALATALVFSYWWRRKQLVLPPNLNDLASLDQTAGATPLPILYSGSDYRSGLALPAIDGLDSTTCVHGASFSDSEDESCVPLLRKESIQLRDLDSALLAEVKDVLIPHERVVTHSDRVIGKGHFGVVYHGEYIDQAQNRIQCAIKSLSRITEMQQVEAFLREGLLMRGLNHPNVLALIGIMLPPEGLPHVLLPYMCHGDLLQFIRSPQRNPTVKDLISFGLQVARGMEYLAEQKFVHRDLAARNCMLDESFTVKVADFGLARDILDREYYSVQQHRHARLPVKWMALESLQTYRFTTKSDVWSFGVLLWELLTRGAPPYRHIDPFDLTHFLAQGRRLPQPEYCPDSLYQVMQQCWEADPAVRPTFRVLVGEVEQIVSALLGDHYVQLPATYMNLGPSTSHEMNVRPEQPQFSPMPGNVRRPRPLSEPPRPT
MEKK2(h), sequence (Q9Y2U5 whole entry): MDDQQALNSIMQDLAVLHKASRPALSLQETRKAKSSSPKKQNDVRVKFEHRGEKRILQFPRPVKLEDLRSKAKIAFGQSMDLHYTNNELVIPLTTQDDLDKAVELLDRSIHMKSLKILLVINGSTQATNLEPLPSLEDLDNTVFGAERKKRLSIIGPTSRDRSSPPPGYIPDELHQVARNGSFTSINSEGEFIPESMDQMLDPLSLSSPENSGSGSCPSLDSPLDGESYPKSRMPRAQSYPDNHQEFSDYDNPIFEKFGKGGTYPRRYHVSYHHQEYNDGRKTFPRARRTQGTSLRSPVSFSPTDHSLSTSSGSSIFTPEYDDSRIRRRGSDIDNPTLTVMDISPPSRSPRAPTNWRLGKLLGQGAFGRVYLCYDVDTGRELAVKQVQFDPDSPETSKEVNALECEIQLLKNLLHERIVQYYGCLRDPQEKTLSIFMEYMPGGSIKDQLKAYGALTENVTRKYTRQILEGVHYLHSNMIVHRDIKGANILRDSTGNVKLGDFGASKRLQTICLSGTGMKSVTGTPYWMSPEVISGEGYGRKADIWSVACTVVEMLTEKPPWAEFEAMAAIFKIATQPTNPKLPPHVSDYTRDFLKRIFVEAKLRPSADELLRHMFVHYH
MAPK1(h), sequence (P27361 whole entry): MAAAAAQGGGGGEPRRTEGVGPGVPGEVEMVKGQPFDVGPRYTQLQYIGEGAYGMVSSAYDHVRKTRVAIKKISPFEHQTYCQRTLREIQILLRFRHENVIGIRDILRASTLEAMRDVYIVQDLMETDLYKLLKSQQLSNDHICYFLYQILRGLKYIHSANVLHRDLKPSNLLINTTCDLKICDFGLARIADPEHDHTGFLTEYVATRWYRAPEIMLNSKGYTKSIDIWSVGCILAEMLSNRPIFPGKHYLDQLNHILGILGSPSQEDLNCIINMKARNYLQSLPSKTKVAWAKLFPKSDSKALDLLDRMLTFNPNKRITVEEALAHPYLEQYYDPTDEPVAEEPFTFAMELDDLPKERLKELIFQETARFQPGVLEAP
MST3(h), sequence (Q9Y6E0 whole entry): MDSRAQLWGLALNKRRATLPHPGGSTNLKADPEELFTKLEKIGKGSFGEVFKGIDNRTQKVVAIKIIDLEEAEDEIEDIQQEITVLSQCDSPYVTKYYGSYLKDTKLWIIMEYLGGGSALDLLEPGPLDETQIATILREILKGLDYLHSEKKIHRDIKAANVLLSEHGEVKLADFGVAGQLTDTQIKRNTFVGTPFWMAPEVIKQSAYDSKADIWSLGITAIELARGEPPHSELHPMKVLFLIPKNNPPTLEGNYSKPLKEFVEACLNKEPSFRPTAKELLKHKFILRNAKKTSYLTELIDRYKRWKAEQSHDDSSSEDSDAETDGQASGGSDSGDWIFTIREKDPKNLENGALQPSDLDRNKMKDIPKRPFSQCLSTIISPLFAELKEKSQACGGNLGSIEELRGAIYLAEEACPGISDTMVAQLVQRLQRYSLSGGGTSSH
MRCKβ(h), sequence (Q9Y5S2 whole entry): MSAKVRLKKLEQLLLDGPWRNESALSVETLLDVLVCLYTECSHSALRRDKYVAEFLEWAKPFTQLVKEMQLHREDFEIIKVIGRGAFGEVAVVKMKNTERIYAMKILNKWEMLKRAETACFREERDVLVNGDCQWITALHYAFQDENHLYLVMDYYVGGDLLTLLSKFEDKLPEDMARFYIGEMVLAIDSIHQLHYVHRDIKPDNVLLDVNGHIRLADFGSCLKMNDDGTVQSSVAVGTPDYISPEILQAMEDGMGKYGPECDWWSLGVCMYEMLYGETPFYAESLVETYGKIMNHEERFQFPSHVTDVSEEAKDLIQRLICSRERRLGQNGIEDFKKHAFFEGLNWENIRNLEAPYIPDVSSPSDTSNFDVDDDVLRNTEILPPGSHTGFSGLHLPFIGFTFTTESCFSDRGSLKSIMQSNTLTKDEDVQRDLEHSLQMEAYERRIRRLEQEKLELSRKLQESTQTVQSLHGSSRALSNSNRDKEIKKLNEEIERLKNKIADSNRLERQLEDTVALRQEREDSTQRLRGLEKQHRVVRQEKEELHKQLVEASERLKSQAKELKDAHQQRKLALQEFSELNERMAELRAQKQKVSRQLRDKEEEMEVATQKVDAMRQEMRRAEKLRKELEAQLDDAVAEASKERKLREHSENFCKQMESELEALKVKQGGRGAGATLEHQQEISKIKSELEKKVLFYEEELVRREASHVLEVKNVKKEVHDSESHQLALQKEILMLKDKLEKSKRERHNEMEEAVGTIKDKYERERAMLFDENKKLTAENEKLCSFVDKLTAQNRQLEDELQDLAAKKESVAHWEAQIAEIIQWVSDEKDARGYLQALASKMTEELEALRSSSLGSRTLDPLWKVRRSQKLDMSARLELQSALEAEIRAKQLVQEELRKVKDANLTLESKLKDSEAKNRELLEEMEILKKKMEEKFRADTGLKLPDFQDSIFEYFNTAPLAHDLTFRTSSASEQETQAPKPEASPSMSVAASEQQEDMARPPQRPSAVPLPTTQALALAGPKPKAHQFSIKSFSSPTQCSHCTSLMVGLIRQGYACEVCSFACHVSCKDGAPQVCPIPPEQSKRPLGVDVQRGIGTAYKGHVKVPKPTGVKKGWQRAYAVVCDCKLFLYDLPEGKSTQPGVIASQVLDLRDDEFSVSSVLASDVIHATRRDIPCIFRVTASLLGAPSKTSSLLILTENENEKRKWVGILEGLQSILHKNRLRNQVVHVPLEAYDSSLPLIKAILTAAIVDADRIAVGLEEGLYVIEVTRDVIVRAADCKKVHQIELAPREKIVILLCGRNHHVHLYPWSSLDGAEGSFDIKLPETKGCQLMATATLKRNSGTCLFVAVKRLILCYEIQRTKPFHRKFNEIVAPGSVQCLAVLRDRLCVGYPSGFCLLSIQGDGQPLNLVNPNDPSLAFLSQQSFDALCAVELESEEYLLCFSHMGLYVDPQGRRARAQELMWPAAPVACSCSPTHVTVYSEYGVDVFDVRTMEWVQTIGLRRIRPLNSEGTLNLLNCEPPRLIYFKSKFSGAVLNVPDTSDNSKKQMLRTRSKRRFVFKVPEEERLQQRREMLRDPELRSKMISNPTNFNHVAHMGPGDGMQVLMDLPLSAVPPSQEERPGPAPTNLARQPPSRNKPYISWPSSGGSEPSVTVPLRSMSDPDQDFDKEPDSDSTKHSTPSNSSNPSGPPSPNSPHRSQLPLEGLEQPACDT

Structure (SMILES): Cc1cc2c(-c3ccc(NC(=O)[C@H](N)CC(C)(C)C)cc3C)ccnc2[nH]1 [Compound F-90, (2R)-2-Amino-4,4-dimethyl-N-[3-methyl-4-(2-methyl-1H-pyrrolo[2,3-b]pyridin-4-yl)phenyl]pentanamide]
- pIC50 (IKKβ): < 5.52
- % Activity (CDK13/cyclinK(h)): 99%
- % Activity (CDK7/cyclinH/MAT1(h)): 95%
- % Activity (CHK2(h)): 95%
- % Activity (cKit(h)): 85%
- % Activity (EphA5(h)): 89%
- % Activity (IGF-1R(h), activated): 93%
- % Activity (IR(h)): 94%
- % Activity (LIMK1(h)): 70%
- % Activity (MAPK1(h)): 95%
- % Activity (MAPKAP-K2(h)): 72%
- % Activity (MEKK2(h)): 122%
- % Activity (MLK3(h)): 91%
- % Activity (MRCKβ(h)): 100%
- % Activity (MST3(h)): 85%
- % Activity (OSR1(h)): 80%
- % Activity (PAK4(h)): 83%
- % Activity (PAK5(h)): 87%
- % Activity (PKBα(h)): 87%
- % Activity (RIPK1(h)): 84%
- % Activity (Ron(h)): 111%
- % Activity (Rsk2(h)): 88%
- % Activity (Rsk4(h)): 101%
- % Activity (STK25(h)): 92%
- % Activity (TBK1(h)): 100%
- % Activity (TSSK4(h)): 117%
